# From patent US5756501A, “Saturated and unsaturated pyridazino[4,5-B] indolizines useful as antidementia agents” (American Home Products Corporation, priority 1996, dated 1998)
# Residue numbers refer to the chain shown, from its start.
# Assays:
# Human m1 receptors = Human m1 receptors (Homo sapiens, UniProt P11229); test: biochemical; type: binding
# muscarinic M1 receptors [1] = target: T1, muscarinic M1 receptors (Rattus norvegicus, UniProt P08482); test: Tritiated pirenzepine ([^3 H]PZ) binding inhibition, rat brain cortex (M1 binding); settings: [^3 H]PZ 0.5 nM, read-out: M1 Binding % Inhib. of [^3 H] Pz @ 10 μM
# T1 construct: The cortex of rat brains obtained from male Sprague-Dawley rats; from tissue; host or cells: rat brain cortex homogenate (male Sprague-Dawley)
# T1 sequence (P08482 1-460): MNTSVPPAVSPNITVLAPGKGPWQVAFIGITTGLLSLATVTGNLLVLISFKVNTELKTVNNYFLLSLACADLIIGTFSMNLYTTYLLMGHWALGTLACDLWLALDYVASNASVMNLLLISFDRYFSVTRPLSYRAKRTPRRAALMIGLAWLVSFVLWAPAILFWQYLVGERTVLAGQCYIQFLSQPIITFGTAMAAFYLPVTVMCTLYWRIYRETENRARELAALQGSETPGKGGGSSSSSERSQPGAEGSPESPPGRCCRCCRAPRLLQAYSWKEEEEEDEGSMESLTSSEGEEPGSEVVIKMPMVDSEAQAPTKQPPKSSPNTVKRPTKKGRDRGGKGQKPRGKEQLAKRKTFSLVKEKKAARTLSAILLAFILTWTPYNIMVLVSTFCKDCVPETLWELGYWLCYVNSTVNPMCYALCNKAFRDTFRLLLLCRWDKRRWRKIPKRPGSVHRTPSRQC
# Experimental: The cortex of rat brains obtained from male Sprague-Dawley rats (300 g) are homogenized using a hand-held teflon-coated pestle in 20 volumes of 0.32M sucrose. After centrifugation (747×g for 10 min at 4° C.), the resultant supernatant is decanted and recentrifuged (18677×g for 20 min at 4° C.). The resultant pellet is resuspended in the original volume of 0.32M sucrose and frozen. After thawing, the suspension is diluted (1:1 v/v) with 10 mM Na2 HPO4 /KH2 PO4 buffer (pH=7.4). [^3 H]PZ (0.5 nM, 0.04 μCi) is then incubated in multiple tubes with a 100 μl sample of the tissue suspension and 10 μl of a test compound solution (10 μM in water or ethanol) or vehicle (for control) in a sufficient quantity of the above phosphate buffer to give a total volume of 1 ml. One half of the tubes also contain 2 μM atropine sulfate which binds non-specifically with muscarinic receptors and provides for correcting the data for binding with other muscarinic receptors which may be present. After 60 minutes of incubation as 25° C. in the dark, the binding is terminated by vacuum filtration onto Whatman GF/B filters (pre-soaded for 60 minutes in 0.1% (w/v) polyethylenimine to reduce non-specific binding). After three washes with the phosphate buffer (4° C., 3 ml/wash) the vacuum is allowed to continue for two minutes before the filter-trapped radioactivity is assayed by liquid scintillation spectroscopy. Specific [^3 H]PZ binding is defined as total binding minus binding in the presence of 2 μM atropine sulfate. Data are pesented in Table I below as the percent inhibition ([control-test]/control×100%) of [^3 H]PZ binding by the test or reference compound.
# muscarinic M2 receptors [2] = target: muscarinic M2 receptors (Rattus norvegicus, UniProt P10980); test: biochemical; type: binding
# Chain of muscarinic M2 receptors (Rattus norvegicus, UniProt P10980) (P10980 whole entry): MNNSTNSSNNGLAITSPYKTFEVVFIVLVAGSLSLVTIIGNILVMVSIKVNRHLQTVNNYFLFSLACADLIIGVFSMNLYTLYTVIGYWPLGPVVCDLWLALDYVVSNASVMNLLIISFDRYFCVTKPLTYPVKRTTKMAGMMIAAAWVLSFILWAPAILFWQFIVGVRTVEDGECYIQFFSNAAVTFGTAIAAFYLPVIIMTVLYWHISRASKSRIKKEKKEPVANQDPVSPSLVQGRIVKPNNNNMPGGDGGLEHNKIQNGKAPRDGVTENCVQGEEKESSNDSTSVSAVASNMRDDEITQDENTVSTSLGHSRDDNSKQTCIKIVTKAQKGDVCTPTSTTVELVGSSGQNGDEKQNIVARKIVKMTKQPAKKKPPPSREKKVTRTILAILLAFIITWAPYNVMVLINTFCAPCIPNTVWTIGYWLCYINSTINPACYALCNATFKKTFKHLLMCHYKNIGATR
# muscarinic M2 receptors [3] = test: biochemical; type: binding, rat; settings: selectivity M1 versus M2
# muscarinic M1 receptors [4] = target: T1, muscarinic M1 receptors; test: Tritiated pirenzepine ([^3 H]PZ) binding inhibition, rat brain cortex (M1 binding)
# [5] = target: T2, M1 acetylcholine receptors (Homo sapiens, UniProt P11229); test: cell-based; settings: CHO, 1 h; read-out: PI Turnover % above baseline
# T2 sequence (P11229 1-460): T1 sequence (P08482 1-460) with V5A, S254T, S309P, K320R, G337A, V413I
# Alzheimer's Disease = settings: cited from earlier work; for improvement in memory: patients with mild to moderate Alzheimer's Disease
# [6] = in vivo; cited from earlier work
# [7] = quaternary ammonium compounds; cited from earlier work
# m1 receptors = settings: cited from earlier work
# Chain of Human m1 receptors (P11229 whole entry): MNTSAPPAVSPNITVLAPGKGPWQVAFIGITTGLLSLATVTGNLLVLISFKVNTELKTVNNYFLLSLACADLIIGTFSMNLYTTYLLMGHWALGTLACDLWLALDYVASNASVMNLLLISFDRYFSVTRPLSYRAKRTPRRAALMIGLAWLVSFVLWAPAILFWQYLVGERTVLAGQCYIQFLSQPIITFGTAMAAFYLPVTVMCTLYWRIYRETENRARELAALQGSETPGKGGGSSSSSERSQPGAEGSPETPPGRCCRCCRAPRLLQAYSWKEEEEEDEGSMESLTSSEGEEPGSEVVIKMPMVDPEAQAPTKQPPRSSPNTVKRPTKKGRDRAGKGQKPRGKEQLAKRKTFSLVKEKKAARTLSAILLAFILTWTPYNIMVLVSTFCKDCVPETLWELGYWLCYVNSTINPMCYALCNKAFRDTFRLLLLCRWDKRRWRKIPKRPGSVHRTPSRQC
structure (smiles),measurement,setting,value
"FC(F)(F)c1nnc(NCCCCN2CC3CCC(CC3)C2)c2cc3ccccn3c12 [Example 1, N-[4-(3-Azabicyclo[3.2.2]non-3-yl)butyl]-4-(trifluoromethyl)pyridazino[4,5b]indolizine-1-amine]",Ki,Human m1 receptors,240 nM
FC(F)(F)c1nnc(NCCCN2CC3CCC(CC3)C2)c2cc3ccccn3c12 [Example 2],Ki,Human m1 receptors,140 nM
"CCN(CC)CCCNc1nnc(COC)c2c1cc1ccccn12 [Example 3, N,N-Diethyl-N'-[4-(methoxymethyl)pyridazino[4,5-b]indolizin-1-yl]-1.3-propanediamine]",inhibition at 10 µM,muscarinic M1 receptors [1],98.4%
"COCc1nnc(NCCCN2CC3CCC(CC3)C2)c2cc3ccccn3c12 [Example 4, N-[3-(3-Azabicyclo[3.2.2]non-3-yl)propyl]-4-(methoxymethyl)pyridazino[4.5-b]indolizin-1-amine]",inhibition at 10 µM,muscarinic M1 receptors [1],100%
"COCc1nnc(NCCCCN2CC3CCC(CC3)C2)c2cc3ccccn3c12 [Example 5, N-[4-(3-Azabicyclo[3.2.2]non-3-yl)butyl]-4-(methoxymethyl)pyridazino[4.5-b]indolizin-1-amine]",inhibition at 10 µM,muscarinic M1 receptors [1],100%
"c1ccc(COCc2nnc(NCCN3CCN(c4ncccn4)CC3)c3cc4ccccn4c23)cc1 [Example 6, 4-[(Phenylmethoxy)methyl]-N-[2-[4-(2-pyrimidinyl)-1-piperazinyl]ethyl]pyridazino[4,5-b]indolizin-1-amine]",inhibition at 10 µM,muscarinic M1 receptors [1],98.3%
"CCN(CC)CCCNCc1nnc(NCCCN(CC)CC)c2cc3ccccn3c12 [Example 7, N,N-Diethyl-N'-[4-[[[3-(diethylamino)propyl]amino]methyl]-pyridazino[4.5-b]indolizin-1-yl]-1,3-propanediamine]",inhibition at 10 µM,muscarinic M1 receptors [1],99.3%
"CCN(CC)CCCNc1nnc(C)c2c1cc1n2CCCC1 [Example 8, N,N-Diethyl-N'-[6,7,8,9-tetrahydro-4-(methyl)-pyridazino[4,5-b]indolizin-1-yl]-1.3-propanediamine]",inhibition at 10 µM,muscarinic M1 receptors [1],98%
Cc1nnc(NCCN2CC3CCC(CC3)C2)c2cc3n(c12)CCCC3 [Example 9],Ki,Human m1 receptors,80 nM
"Cc1nnc(NCCCN2CC3CCC(CC3)C2)c2cc3n(c12)CCCC3 [Example 10, N-[3-(3-Azabicyclo[3.2.2]non-3-yl)propyl]-6,7,8,9-tetrahydro-4-(methyl)pyridazino[4,5-b]indolizin-1-amine]",Ki,Human m1 receptors,9 nM
"Cc1nnc(NCCCCN2CC3CCC(CC3)C2)c2cc3n(c12)CCCC3 [Example 11, N-[4-(3-Azabicyclo[3.2.2]non-3-yl)butyl]-6,7,8,9-tetrahydro-4-methylpyridazino[4,5-b]indolizin-1-amine]",Ki,muscarinic M2 receptors [2],13.4 nM
same,M2/M1 Ki ratio,muscarinic M2 receptors [3],10
same,inhibition at 1 µM,"muscarinic M1 receptors [4]; 1 μM, rat cortex, [^3 H]PZ 0.5 nM, read-out: M1 Binding % Inhib. of [^3 H] Pz @ 1 μM",101%
same,Ki,"muscarinic M1 receptors [4]; Table II, rat brain M1",1.34 nM
same,Emax,[5],102%
"FC(F)(F)c1nnc(NCCCCN2CC3CCC(CC3)C2)c2cc3n(c12)CCCC3 [Example 12, N-[4-(3-Azabicyclo[3.2.2]non-3-yl)butyl]-6,7,8,9-tetrahydro-4-(trifluoromethyl)-pyridazino[4,5-b]indolizin-1-amine]",Ki,Human m1 receptors,206 nM
"CCN(CC)CCCNc1nnc(COC)c2c1cc1n2CCCC1 [Example 13, N,N-Diethyl-N'-[6,7,8,9-tetrahydro-4-(methoxymethyl)-pyridazino[4,5-b]indolizin-1-yl]-1.3-propanediamine]",inhibition at 10 µM,muscarinic M1 receptors [1],109%
"COCc1nnc(NCCCCN2CC3CCC(CC3)C2)c2cc3n(c12)CCCC3 [Example 14, N-[4-(3-Azabicyclo[3.2.2]non-3-yl)butyl]-6,7,8,9-tetrahydro-4-(methoxymethyl)-pyridazino[4,5-b]indolizin-1-amine]",inhibition at 10 µM,muscarinic M1 receptors [1],101%
same,Emax,[5],73%
"c1ccc(COCc2nnc(NCCCCN3CCOCC3)c3cc4n(c23)CCCC4)cc1 [Example 15, 6,7,8,9,-Tetrahydro-N-[4-(4-morpholinyl)butyl]-4-[(phenylmethoxy)methyl]-pyradazino[4,5-b]indolizin-1-amine]",inhibition at 10 µM,muscarinic M1 receptors [1],100%
COC(=O)C1=CCCN(C)C1 [arecoline],improvement in memory,Alzheimer's Disease,memory improvement in patients with mild to moderate Alzheimer's Disease
same,half-life,[6],short half-life
C[N+](C)(C)CCOC(N)=O [carbachol],ability to cross the blood brain barrier,[7],not able to cross the blood brain barrier
C[C@@H]1O[C@H](C[N+](C)(C)C)C[C@H]1O [muscarine],activation of m1 receptors,m1 receptors,able to fully activate m1 receptors
same,ability to cross the blood brain barrier,[7],not able to cross the blood brain barrier
Nc1c2c(nc3ccccc13)CCCC2 [tacrine],adverse side effects,Alzheimer's Disease; higher doses,adverse side effects especially at the higher doses
same,improvement in memory,Alzheimer's Disease,improvement in memory can be shown in patients with mild to moderate Alzheimer's Disease
